According to ChEMBL document CHEMBL3872201, “Synthesis and antiproliferative activity of a natural like glycoconjugate polycyclic compound” (2016):
Activity calls are given as the source filed them. The rule behind the calls is not given here.

Tests used:
[1] = Cell cycle arrest in human MDA-MB-231 cells assessed as accumulation at G0/G1 phase at 10 uM after 24 hrs by propidium iodide staining based flow cytometric analysis (reference value: 66.5%); type: functional
[2] = Antiproliferative activity against human UO31 cells after 48 hrs by sulforhodamine B assay; type: functional; details: UO-31, 48 h
[3] = Cytotoxicity against human MDA-MB-231 cells assessed as inhibition of cell viability at 10 uM after 24 hrs by MTT assay relative to control; type: functional; details: MDA-MB-231, 24 h
[4] = Antiproliferative activity against human OVCAR3 cells after 48 hrs by sulforhodamine B assay; type: functional; details: OVCAR-3, 48 h
[5] = Antiproliferative activity against human HL-60(TB) cells after 48 hrs by sulforhodamine B assay; type: functional; details: HL-60, 48 h
[6] = Antiproliferative activity against human MDA-MB-231 cells after 48 hrs by sulforhodamine B assay; type: functional; details: MDA-MB-231, 48 h
MDA-MB-231 [7] = assay: Cytotoxicity against human MDA-MB-231 cells assessed as inhibition of cell viability at 5 to 10 uM up to 72 hrs by MTT assay; type: functional, cell-based
[8] = Antiproliferative activity against human SK-MEL-5 cells after 48 hrs by sulforhodamine B assay; type: functional; details: SK-MEL-5, 48 h
[9] = Cell cycle arrest in human MDA-MB-231 cells assessed as accumulation at subG0/G1 phase at 5 uM after 48 hrs by propidium iodide staining based flow cytometric analysis (reference value: 8.8%); type: functional
[10] = Antiproliferative activity against human ACHN cells after 48 hrs by sulforhodamine B assay; type: functional
[11] = Antiproliferative activity against human SNB19 cells after 48 hrs by sulforhodamine B assay; type: functional; details: SNB-19, 48 h
[12] = Antiproliferative activity against human HOP62 cells after 48 hrs by sulforhodamine B assay; type: functional; details: HOP-62, 48 h
[13] = Antiproliferative activity against human NCI-H322M cells after 48 hrs by sulforhodamine B assay; type: functional
MDA-MB-231 [14] = assay: Cytotoxicity against human MDA-MB-231 cells assessed as inhibition of cell viability after 48 hrs by MTT assay relative to control; type: functional, cell-based
[15] = Antiproliferative activity against human MCF7 cells after 48 hrs by sulforhodamine B assay; type: functional; details: MCF7, 48 h
[16] = Cell cycle arrest in human MDA-MB-231 cells assessed as cell flattening at 5 to 10 uM after 8 days by light microscopic analysis; type: functional, cell-based
[17] = Antiproliferative activity against human T47D cells after 48 hrs by sulforhodamine B assay; type: functional
[18] = Antiproliferative activity against human OVCAR4 cells after 48 hrs by sulforhodamine B assay; type: functional; details: OVCAR-4, 48 h
[19] = Cell cycle arrest in human MDA-MB-231 cells assessed as accumulation at G0/G1 phase at 10 uM after 48 hrs by propidium iodide staining based flow cytometric analysis (reference value: 67%); type: functional
[20] = Antiproliferative activity against human COLO205 cells after 48 hrs by sulforhodamine B assay; type: functional; details: COLO 205, 48 h
[21] = Cytotoxicity against human MDA-MB-231 cells assessed as inhibition of cell viability at 5 uM after 48 hrs by MTT assay relative to control; type: functional; details: MDA-MB-231, 48 h
[22] = Antiproliferative activity against human MDA-MB-435 cells after 48 hrs by sulforhodamine B assay; type: functional; details: MDA-MB-435, 48 h
[23] = Cell cycle arrest in human MDA-MB-231 cells assessed as accumulation at subG0/G1 phase at 10 uM after 24 hrs by propidium iodide staining based flow cytometric analysis (reference value: 7.6%); type: functional
[24] = Antiproliferative activity against human NCI-H226 cells after 48 hrs by sulforhodamine B assay; type: functional; details: NCI-H226, 48 h
MDA-MB-231 [25] = assay: Effect on cell cycle regulatory protein in human MDA-MB-231 cells assessed as cyclin B1 level at 10 uM after 48 hrs by Western blot analysis relative to control; type: functional
[26] = Antiproliferative activity against human UACC62 cells after 48 hrs by sulforhodamine B assay; type: functional; details: UACC-62, 48 h
[27] = Antiproliferative activity against human SKOV3 cells after 48 hrs by sulforhodamine B assay; type: functional; details: SK-OV-3, 48 h
[28] = Antiproliferative activity against human KM12 cells after 48 hrs by sulforhodamine B assay; type: functional; details: KM12, 48 h
[29] = Antiproliferative activity against human Caki1 cells after 48 hrs by sulforhodamine B assay; type: functional; details: CAKI-1, 48 h
MDA-MB-231 [30] = assay: Effect on cell cycle regulatory protein in human MDA-MB-231 cells assessed as cyclin B1 level at 5 uM after 24 hrs by Western blot analysis relative to control; type: functional
[31] = Cell cycle arrest in human MDA-MB-231 cells assessed as accumulation at G2/M phase at 10 uM after 48 hrs by propidium iodide staining based flow cytometric analysis (reference value: 19.5%); type: functional
[32] = Antiproliferative activity against human LOXIMVI cells after 48 hrs by sulforhodamine B assay; type: functional; details: LOX IMVI
[33] = Cell cycle arrest in human MDA-MB-231 cells assessed as accumulation at subG0/G1 phase at 5 uM after 24 hrs by propidium iodide staining based flow cytometric analysis (reference value: 7.6%); type: functional
[34] = Antiproliferative activity against human SF268 cells after 48 hrs by sulforhodamine B assay; type: functional; details: SF-268, 48 h
[35] = Antiproliferative activity against human UACC257 cells after 48 hrs by sulforhodamine B assay; type: functional; details: UACC-257, 48 h
[36] = read-out: LC50 (the source's name)

Question: For `C=C1c2c(C)nn(-c3ccc(C#CCO[C@@H]4O[C@H](CO)[C@@H](O)[C@H](O)[C@H]4O)cc3)c2N(C)C23CC1C1(C)c4c(C)nn(-c5ccc(C#CCO[C@@H]6O[C@H](CO)[C@@H](O)[C@H](O)[C@H]6O)cc5)c4N(C)C(C)(CC12)C3` (some centres undefined), which Activity [1] is on record?
Answer: 52%

Question: What about the GI50 [2] of the same molecule?
Answer: 2830 nM

Question: What about the TGI [2] of the same molecule?
Answer: 10.1 µM

Question: And the CC50 [2, 36]?
Answer: 31.8 µM

Question: What about the inhibition at 10 µM [3] of the same molecule?
Answer: 80%

Question: And the GI50 [4]?
Answer: 1520 nM

Question: And the TGI [4]?
Answer: 3.8 µM

Question: And the CC50 [4, 36]?
Answer: 9.49 µM

Question: And the GI50 [5]?
Answer: 2070 nM

Question: What about the TGI [5] of the same molecule?
Answer: 4.43 µM

Question: And the CC50 [5, 36]?
Answer: 9.49 µM

Question: What about the GI50 [6] of the same molecule?
Answer: 1500 nM

Question: What about the TGI [6] of the same molecule?
Answer: 3.06 µM

Question: What about the CC50 [6, 36] of the same molecule?
Answer: 6.23 µM

Question: What about the inhibition (MDA-MB-231 [7]) of the same molecule?
Answer: Active

Question: And the GI50 [8]?
Answer: 1380 nM

Question: And the TGI [8]?
Answer: 2710 nM

Question: And the CC50 [8, 36]?
Answer: 5.31 µM

Question: And the Activity [9]?
Answer: 2.1%

Question: And the GI50 [10]?
Answer: 2420 nM

Question: What about the TGI [10] of the same molecule?
Answer: 10.6 µM

Question: And the CC50 [10, 36]?
Answer: 32.5 µM

Question: What about the GI50 [11] of the same molecule?
Answer: 1660 nM

Question: What about the TGI [11] of the same molecule?
Answer: 3.95 µM

Question: What about the CC50 [11, 36] of the same molecule?
Answer: 9.37 µM

Question: What about the GI50 [12] of the same molecule?
Answer: 1490 nM

Question: And the TGI [12]?
Answer: 2880 nM

Question: What about the CC50 [12, 36] of the same molecule?
Answer: 5.57 µM

Question: And the GI50 [13]?
Answer: 1760 nM

Question: What about the TGI [13] of the same molecule?
Answer: 3.75 µM

Question: What about the CC50 [13, 36] of the same molecule?
Answer: 8.01 µM

Question: And the inhibition (MDA-MB-231 [14])?
Answer: Dose-dependent effect

Question: What about the GI50 [15] of the same molecule?
Answer: 1380 nM

Question: What about the TGI [15] of the same molecule?
Answer: 3.2 µM

Question: And the CC50 [15, 36]?
Answer: 7.42 µM

Question: And the Activity [16]?
Answer: Active

Question: What about the GI50 [17] of the same molecule?
Answer: 680 nM

Question: And the TGI [17]?
Answer: 6.8 µM

Question: What about the CC50 [17, 36] of the same molecule?
Answer: 100 µM

Question: And the GI50 [18]?
Answer: 1680 nM

Question: What about the TGI [18] of the same molecule?
Answer: 9.94 µM

Question: And the CC50 [18, 36]?
Answer: 31.8 µM

Question: What about the Activity [19] of the same molecule?
Answer: 61.3%

Question: What about the GI50 [20] of the same molecule?
Answer: 1470 nM

Question: And the TGI [20]?
Answer: 2880 nM

Question: And the CC50 [20, 36]?
Answer: 5.63 µM

Question: What about the inhibition at 5 µM [21] of the same molecule?
Answer: 68%

Question: What about the GI50 [22] of the same molecule?
Answer: 1670 nM

Question: What about the TGI [22] of the same molecule?
Answer: 3.77 µM

Question: What about the CC50 [22, 36] of the same molecule?
Answer: 8.5 µM

Question: And the Activity [23]?
Answer: 2.2%

Question: And the GI50 [24]?
Answer: 1620 nM

Question: What about the TGI [24] of the same molecule?
Answer: 3.7 µM

Question: And the CC50 [24, 36]?
Answer: 8.46 µM

Question: And the “fold change (FC)” value (MDA-MB-231 [25])?
Answer: 0.5

Question: What about the GI50 [26] of the same molecule?
Answer: 1220 nM

Question: And the TGI [26]?
Answer: 2860 nM

Question: And the CC50 [26, 36]?
Answer: 6.71 µM

Question: What about the GI50 [27] of the same molecule?
Answer: 1720 nM

Question: And the TGI [27]?
Answer: 3.11 µM

Question: And the CC50 [27, 36]?
Answer: 5.61 µM

Question: What about the GI50 [28] of the same molecule?
Answer: 1440 nM

Question: What about the TGI [28] of the same molecule?
Answer: 2900 nM

Question: And the CC50 [28, 36]?
Answer: 5.84 µM

Question: And the GI50 [29]?
Answer: 2810 nM

Question: And the TGI [29]?
Answer: 11.6 µM

Question: What about the CC50 [29, 36] of the same molecule?
Answer: 49 µM

Question: And the “fold change (FC)” value (MDA-MB-231 [30])?
Answer: 0.9

Question: And the Activity [31]?
Answer: 31.1%

Question: What about the GI50 [32] of the same molecule?
Answer: 1370 nM

Question: And the TGI [32]?
Answer: 2790 nM

Question: What about the CC50 [32, 36] of the same molecule?
Answer: 5.69 µM

Question: And the Activity [33]?
Answer: 7.1%

Question: What about the GI50 [34] of the same molecule?
Answer: 1750 nM

Question: What about the TGI [34] of the same molecule?
Answer: 3.57 µM

Question: And the CC50 [34, 36]?
Answer: 7.27 µM

Question: And the GI50 [35]?
Answer: 1820 nM

Question: What about the TGI [35] of the same molecule?
Answer: 4.56 µM

Question: What about the CC50 [35, 36] of the same molecule?
Answer: 15.4 µM
